Data from patent US4886805A, “Novel aminoalkylthio derivatives of triazolopyridine or triazoloquinoline, the processes for their preparation, and drugs, useful especially as analgesics, in which they are present” (Centre D'Activite Et De Recherches Pharmaceutique …, priority 1986, dated 1989).
Read-outs that look alike come from different tables or passages of the source.

System: pain reactions caused by phenylbenzoquinone
Experiment: Siegmund test with phenylbenzoquinone (analgesic activity after oral administration)
Format: in vivo, male mice, CD1 strain (Charles River)
Conditions: Mus musculus, read-out: AD50 confidence limits
[1] = 50% active dose with confidence limits, oral (gastric intubation), 1 hour before phenylbenzoquinone i.p., twists and stretches counted 5th to 10th minute, mice

Description: This method makes it possible to assess the analgesic activity of molecules having both a peripheral and a central action.
Male mice of the CD1 strain (Charles River) and OF1 strain (Iffa Credo), weighing from 19 to 22 g, were used for the Siegmund test and the Eddy test respectively. The tests were carried out at an ambient temperature of 21°±2° C.
The products were suspended in an aqueous mixture of 1% gum arabic, 0.1% sodium chloride and 0.001% Tween 80.
One hour after administration of the product studied, 0.20 to 0.22 ml of a 0.02% aqueous-alcoholic solution of phenylbenzoquinone is administered to the mice intraperitoneally.
The number of pain reactions (twists and stretches) is counted from the 5th to the 10th minute.
The products of the examples studied were administered to groups of 6 to 12 mice by gastric intubation (0.5 ml/20 g), one hour before phenylbenzoquinone, according to the following dosage schedule:
The percentage inhibition of pain manifestations was calculated from the mean numbers of twists per group.
The 50% active doses and their confidence limits were determined from the linear regression carried out on the parameters measured.

`FC(F)(F)c1cccc(N2CCN(CCCSc3nnc4ccc5ccccc5n34)CC2)c1` [Example 57, 1-[3-(4-(3-Trifluoromethylphenyl)piperazin1-yl)propylmercapto]-s-triazolo(4,3-a)quinoline] was tested, and the ED50 [1] was 8.56 mg/kg.

`Cl.Cl.Fc1ccc(N2CCNCC2)c(F)c1` [Example 1, 4-(2,4-Difluorophenyl)piperazine dihydrochloride] was tested, and the ED50 (po) was 2.16 mg/kg.

In the case of `Fc1ccc(N2CCN(CCSc3nnc4ccccn34)CC2)c(F)c1` [Example 44, 3-[2-(4-(2,4-Difluorophenyl)piperazin-1-yl)ethylmercapto]-1,2,4-triazolo(4,3-a)pyridine], the ED50 [1] is reported as 11 mg/kg.

Compound `Fc1ccc(C2=CCN(CCSc3nnc4ccccn34)CC2)cc1` [Example 45, 3-[2-(4-(4-Fluorophenyl)-1,2,3,6-tetrahydropyridin-1-yl)ethylmercapto]-1,2,4-triazolo(4,3-a)pyridine] has an ED50 (po) of 33 mg/kg.

`Cc1ccc2nnc(SCCN3CCN(c4cccc(C(F)(F)F)c4)CC3)n2c1.Cl.Cl` [Example 31, 3-[2-(4-(3-Trifluoromethylphenyl)piperazin-1-yl)ethylmercapto]-6-methyl-1,2,4-triazolo(4,3-a)pyridine dihydrochloride] showed an ED50 [1] of 3.6 mg/kg.

For `Cc1cc2ccccc2n2c(SCCCN3CCN(c4ccc(F)cc4F)CC3)nnc12` [Example 66, 1-[3-(4-(2,4-Difluorophenyl)piperazin-1-yl)propylmercapto]-4-methyl-s-triazolo(4,3-a)quinoline], the ED50 [1] was 17.9 mg/kg.

For `FC(F)(F)c1cccc(N2CCN(CCSc3nnc4c(C(F)(F)F)cccn34)CC2)c1.O=C(O)/C=C\C(=O)O` [Example 24, 3-[2-(4-(3-Trifluoromethylphenyl)piperazin-1-yl)ethylmercapto]-8-trifluoromethyl-1,2,4-triazolo(4,3-a)pyridine maleate], the ED50 [1] was 4.53 mg/kg.

For `Cl.Cl.Fc1ccccc1N1CCN(CCSc2nnc3ccccn23)CC1` [Example 41, 3-[2-(4-(2-Fluorophenyl)piperazin-1-yl)ethylmercapto]-1,2,4-triazolo(4,3-a)pyridine dihydrochloride], the ED50 [1] was 3.19 mg/kg.

Work on `FC(F)(F)c1cccc(N2CCN(CCSc3nnc4ccccn34)CC2)c1.O=C(O)/C=C\C(=O)O` [Example 33, 3-[2-(4-(3-Trifluoromethylphenyl)piperazin-1-yl)ethylmercapto]-1,2,4-triazolo(4,3-a)pyridine maleate] yielded an ED50 [1] of 1.71 mg/kg.

Compound `Cc1cc2nnc(SCCN3CCN(c4ccc(F)cc4F)CC3)n2c2ccccc12` [Example 62, 1-[2-(4-(2,4-Difluorophenyl)piperazin-1-yl)ethylmercapto]-5-methyl-s-triazolo(4,3-a)quinoline] has an ED50 [1] of 11 mg/kg.

In the case of `Fc1ccc(N2CCN(CCSc3nnc4c(C(F)(F)F)cccn34)CC2)c(F)c1` [Example 28, 3-[2-(4-(2,4-Difluorophenyl)piperazin-1-yl)ethylmercapto]-8-trifluoromethyl-1,2,4-triazolo(4,3-a)pyridine], the ED50 [1] is reported as 22.4 mg/kg.

For `Clc1ccc(C2=CCN(CCSc3nnc4ccccn34)CC2)cc1` [Example 48, 3-[2-(4-(4-Chlorophenyl)-1,2,3,6-tetrahydropyridin-1-yl)ethylmercapto]-1,2,4-triazolo(4,3-a)pyridine], the ED50 (po) was 16.1 mg/kg.

`Cc1cc2ccccc2n2c(SCCN3CCN(c4cccc(C(F)(F)F)c4)CC3)nnc12` [Example 63, 1-[2-(4-(3-Trifluoromethylphenyl)piperazin-1-yl)ethylmercapto]-4-methyl-s-triazolo(4,3-a)quinoline] was tested, and the ED50 [1] was 8.17 mg/kg.

With `Cc1cc2ccccc2n2c(SCCCN3CCN(c4cccc(C(F)(F)F)c4)CC3)nnc12` [Example 59, 1-[3-(4-(3-Trifluoromethylphenyl)piperazin-1-yl)propylmercapto]-4-methyl-s-triazolo(4,3-a)quinoline] the ED50 [1] was 14.1 mg/kg.

`Clc1cccc(N2CCN(CCSc3nnc4ccccn34)CC2)c1` [Example 49, 3-[2-(4-(3-Chlorophenyl)piperazin-1-yl)ethylmercapto]-1,2,4-triazolo(4,3-a)pyridine] showed an ED50 [1] of 2.45 mg/kg.

`Fc1ccc(N2CCN(CCCSc3nnc4c(C(F)(F)F)cccn34)CC2)c(F)c1` [Example 32, 3-[3-(4-(2,4-Difluorophenyl)piperazin-1-yl)propylmercapto]-8-trifluoromethyl-1,2,4-triazolo(4,3-a)pyridine] showed an ED50 [1] of 12.6 mg/kg.

Compound `Fc1ccc(N2CCN(CCCSc3nnc4ccccn34)CC2)c(F)c1` [Example 43, 3-[3-(4-(2,4-Difluorophenyl)piperazin-1-yl)propylmercapto]-1,2,4-triazolo(4,3-a)pyridine] has an ED50 [1] of 13.9 mg/kg.
